Assay results reported in US20240368151A1, “NOVEL ERGOLINES AND METHODS OF TREATING MOOD DISORDERS” (priority 2021, published 2024).

What was measured:
[1] = Metabolic stability in rat liver microsomes (RLM); assay type: in vitro ADME; settings: both sexes, rat, pooled rat liver microsomes, pH 7.4, NADPH
5-HT2A receptor [2] = target: T1, 5-HT2A receptor (Homo sapiens (Human), UniProt P28223); assay type: cell-based; settings: for 5-HT2A % Act @ Max Dose: Ca^2+ flux, HEK293
Outline: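 Agonist-induced calcium flux was measured on FLIPR Tetra in stable HEK293 cells for 5-HT2A and 5-HT2B, and in stable CHO cells for 5-HT1A. Cells were loaded with Fluo-4 Direct dye and 2.5 mM probenecid for 50 min at 37 °C before compound addition and fluorescence reading.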

D2 receptor = D2 receptor (Homo sapiens (Human), UniProt P14416); assay: FLIPR Ca^2+ flux agonist assay at D2; assay type: cell-based
D2 receptor, sequence (P14416 whole entry, looked up): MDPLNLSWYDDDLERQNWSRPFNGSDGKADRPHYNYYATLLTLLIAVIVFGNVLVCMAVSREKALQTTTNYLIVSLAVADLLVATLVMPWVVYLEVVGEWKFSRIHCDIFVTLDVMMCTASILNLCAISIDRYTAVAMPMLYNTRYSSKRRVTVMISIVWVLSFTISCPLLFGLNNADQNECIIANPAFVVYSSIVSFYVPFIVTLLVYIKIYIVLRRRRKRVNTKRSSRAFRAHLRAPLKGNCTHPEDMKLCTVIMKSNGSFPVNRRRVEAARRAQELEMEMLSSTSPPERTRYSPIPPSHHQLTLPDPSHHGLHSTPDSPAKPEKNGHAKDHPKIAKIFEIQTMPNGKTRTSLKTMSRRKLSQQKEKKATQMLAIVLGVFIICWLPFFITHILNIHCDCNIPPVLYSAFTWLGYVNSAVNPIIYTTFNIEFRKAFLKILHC
Experimental: Functional Assays at Adrenergic and Dopamine Receptors. Agonist activity at Alpha1A, Alpha2A, D1, and D2 receptors was determined using a FLIPR Ca^2+ flux assay at WuXi AppTec (Hong Kong) Limited according to their standard protocols. Briefly, stably transfected cells expressing the receptor of interest were grown and plated in a 384 well plate and incubated at 37° C. and 5% CO2 overnight. A solution of 250 mM probenecid in 1 mL FLIPR assay buffer was prepared fresh. This was combined with a fluorescent dye (Fluo-4 Direct™) to make a final assay concentration of 2.5 mM. […] The fluorescent dye was then added to the assay plate along with assay buffer to a final volume of 40 μL. The cell plate was incubated for 50 min at 37° C. and 5% CO2 and placed into the FLIPR Tetra along with the compound plate. 10 μL of references and compounds were then transferred from the compound plate into the cell plate and the fluorescent signal was read.

5-HT2A receptor [3] = target: T1, 5-HT2A receptor; assay type: cell-based; settings: for arrestin bias: potency in arrestin assay compared to Ca^2+ signaling assay: 5-HT2A arrestin vs G protein-dependent Ca^2+ assay; for 5-HT2A Arrestin % Act @ Max Dose / agonist type in the 5-HT2A arrestin recruitment assay, in words: beta-arrestin recruitment
Outline: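 PathHunter enzyme-fragment complementation in cells expressing ProLink-tagged 5-HT2A and β-arrestin–β-galactosidase fusion. Cells incubated at 37 °C before testing; recruitment read by chemiluminescence. Agonist activity expressed as % of maximal control ligand response after vehicle subtraction.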

Sprague Dawley rats = assay: Forced swim test (FST) in rats; assay type: in vivo, rat; settings: for Time Immobile / efficacy in FST relative to positive control desipramine, in words: rat FST; for Time Immobile: 23.5 hours after a single dose; for efficacy in FST relative to positive control desipramine, in words: 0.032 mg/kg
Experimental: Compound 1 induced antidepressant-like effects in the forced swim test (FST) in rats with a 23.5-h pre-treatment time (FIG. 2).
Animals. Male Sprague Dawley rats, aged 9-10 weeks, were used in this experiment. Animals were housed in groups of 2 under controlled temperature (22±3° C.) and relative humidity (30-70%) conditions, with 12-hour light/dark cycles, and with ad libitum food and water. This study was carried out in strict accordance with the requirements of the Committee for the Purpose of Control and Supervision of Experiments on Animals (CPCSEA), India. All efforts were made to minimize suffering.
Drugs and Drug Administration. Compound 1 was synthesized as described above. Desipramine HCl was commercially obtained. The test compound, saline vehicle, and the positive control desipramine were administered subcutaneously (SC), with doses calculated based on the freebase. Normal saline was used as the vehicle. All compounds were administered at a volume of 5 mL/kg. The test compound and vehicle were administered 0.5 h after the start of the training swim (Swim 1) and 23.5 h before the test swim (Swim 2). Desipramine was administered 3 times, at 23.5 h, 5 h, and 1 h before the test swim (Swim 2), each time at a dose of 20 mg/kg. Group size was n=10 per treatment.
Forced Swim Test (FST). […] Rats were handled for about 2 min daily for the 5 days prior to the beginning of the experimental procedure. On the first day of the experiment (i.e., Day 0), post randomization, training swim sessions (Swim 1) were conducted between 12:00 and 18:00 h with all animals by placing rats in individual glass cylinders (46 cm tall×20 cm in diameter) containing 23-25° C. water 30 cm deep for 15 minutes. At the conclusion of Swim 1, animals were dried with paper towels, placed in heated drying cages for 15 minutes, and then returned to their home cages. Animals were then administered the appropriate drug or vehicle treatment(s), as described above. For clarity, a compound administration time of 23.5 h before Swim 2 means 0.5 h after the start of Swim 1 and 0.25 h after the completion of Swim 1 (i.e., immediately after return to the home cage). On Day 1 (i.e., 24 h after start of Swim 1), animals performed the test swim (Swim 2) for a period of 5 min but otherwise under the same conditions as Swim 1. During all swim sessions, the water was changed between each animal.
Behavioral scoring was conducted by observers who were blind to the treatment groups. Animals were continuously observed during Swim 2 and the total time spent engaging in the following behaviors was recorded: immobile, swimming, and climbing. A rat was judged to be immobile when it remained floating in the water without struggling and was making only those movements necessary to keep its head above water. A rat was judged to be swimming when it made active swimming motions, more than necessary to merely maintain its head above water (e.g., moving around in the cylinder). A rat was judged to be climbing when it made active movements with its forepaws in and out of the water, usually directed against the walls.
Statistical Analysis. The data points shown represent the mean±standard error of the mean (SEM). Analysis was performed using GraphPad Prism 6. Comparisons between groups were performed using the one-way analysis of variance (ANOVA), followed by Dunnett's test for comparisons to vehicle.
Additional disclosed compounds were tested in the forced swim test (FST) in rats according to the procedure described in Example 35.

Q: Which half-life at 1 μM [1] does the source give for CCN(CC)C(=O)[C@@H]1C=C2c3cccc4[nH]cc(c34)C[C@H]2N(CCc2ccccc2OC)C1 [Compound 11, (6aR,9R)-N,N-diethyl-7-(2-methoxyphenethyl)-4,6,6a,7,8,9-hexahydroindolo[4,3-fg]quinoline-9-carboxamide] here?
A: The half-life at 1 μM was 1.16 min.

Q: What about the “5-HT2A % Act @ Max Dose” value (5-HT2A receptor [2]) of the same compound?
A: Its value is 63.46%.

Q: And the “D2 % Act @ Max Dose” value (D2 receptor)?
A: The value was 98.49%.

Q: And the “arrestin bias: potency in arrestin assay compared to Ca^2+ signaling assay” value (5-HT2A receptor [3])?
A: Its value is over 50 fold.

Q: And the “5-HT2A Arrestin % Act @ Max Dose” value (5-HT2A receptor [3])?
A: Its value is 54.255%.

Q: What about the “agonist type in the 5-HT2A arrestin recruitment assay, in words” value (“agonist type” below) (5-HT2A receptor [3]) of the same compound?
A: The value was “partial agonists”.

Q: Which results are given for CCCN1C[C@H](C(=O)NC(CC)CC)C=C2c3cccc4[nH]cc(c34)C[C@H]21 [Compound 6, (6aR,9R)-N-(pentan-3-yl)-7-propyl-4,6,6a,7,8,9-hexahydroindolo[4,3-fg]quinoline-9-carboxamide]?
A: Time Immobile (Sprague Dawley rats; 0.032 mg/kg SC): 93.6 s; Time Immobile (Sprague Dawley rats; 0.32 mg/kg SC): 76.6 s; half-life at 1 μM [1]: 1.66 min; 5-HT2A % Act @ Max Dose (5-HT2A receptor [2]): 94.64%; D2 % Act @ Max Dose (D2 receptor): 91.67%; 5-HT2A Arrestin % Act @ Max Dose (5-HT2A receptor [3]): 102.75%; agonist type in the 5-HT2A arrestin recruitment assay, in words (5-HT2A receptor [3]): full agonists

Q: With CCCN1C[C@H](C(=O)N2[C@@H](C)C[C@@H]2C)C=C2c3cccc4[nH]cc(c34)C[C@H]21 [Compound 4, ((2S,4S)-2,4-dimethylazetidin-1-yl)((6aR,9R)-7-propyl-4,6,6a,7,8,9-hexahydroindolo[4,3-fg]quinolin-9-yl)methanone] as the compound, how does the “Time Immobile” value (Sprague Dawley rats; 0.01 mg/kg SC) read?
A: Its value is 110.4 s.

Q: And the “Time Immobile” value (Sprague Dawley rats; 0.032 mg/kg SC)?
A: Its value is 68.89 s.

Q: And the “efficacy in FST relative to positive control desipramine, in words” value (Sprague Dawley rats; SC)?
A: The value was “as efficacious as the positive control desipramine”.

Q: And the “Time Immobile” value (Sprague Dawley rats; 0.32 mg/kg SC)?
A: The value was 117.9 s.

Q: What about the half-life at 1 μM [1] of the same compound?
A: The half-life at 1 μM was 12.8 min.

Q: What about the “5-HT2A % Act @ Max Dose” value (5-HT2A receptor [2]) of the same compound?
A: The value was 97.6%.

Q: And the “D2 % Act @ Max Dose” value (D2 receptor)?
A: The value was 116.6%.

Q: And the “5-HT2A Arrestin % Act @ Max Dose” value (5-HT2A receptor [3])?
A: Its value is 116.8%.

Q: And the “agonist type” value (5-HT2A receptor [3])?
A: The value was “full agonists”.

Q: Which “Time Immobile” value (Sprague Dawley rats; 0.032 mg/kg SC) does the source give for CCCN1C[C@H](C(=O)N(CC)CC)C=C2c3cccc4[nH]cc(c34)C[C@H]21 [Compound 1, (6aR,9R)-N,N-diethyl-7-propyl-4,6,6a,7,8,9-hexahydroindolo[4,3-fg]quinoline-9-carboxamide] here?
A: Its value is 161.6 s.

Q: What about the “Time Immobile” value (Sprague Dawley rats; 0.32 mg/kg SC) of the same compound?
A: The value was 68.2 s.

Q: And the “immobility time relative to vehicle control, in words” value (Sprague Dawley rats; rats, SC, 23.5 hours after a single administration)?
A: The value was “reduced immobility time”.

Q: And the half-life at 1 μM [1]?
A: Its half-life at 1 μM is 16.2 min.

Q: What about the “5-HT2A % Act @ Max Dose” value (5-HT2A receptor [2]) of the same compound?
A: Its value is 96.96%.

Q: What about the “D2 % Act @ Max Dose” value (D2 receptor) of the same compound?
A: The value was 94.51%.

Q: What about the “5-HT2A Arrestin % Act @ Max Dose” value (5-HT2A receptor [3]) of the same compound?
A: The value was 128.71%.

Q: And the “agonist type” value (5-HT2A receptor [3])?
A: The value was “full agonists”.

Q: Which half-life at 1 μM [1] does the source give for CCN(CC)C(=O)[C@@H]1C=C2c3cccc4[nH]cc(c34)C[C@H]2N(Cc2ccccc2OC)C1 [Compound 10, (6aR,9R)-N,N-diethyl-7-(2-methoxybenzyl)-4,6,6a,7,8,9-hexahydroindolo[4,3-fg]quinoline-9-carboxamide] here?
A: The half-life at 1 μM was 3.4 min.

Q: What about the “5-HT2A % Act @ Max Dose” value (5-HT2A receptor [2]) of the same compound?
A: Its value is 49.44%.

Q: And the “D2 % Act @ Max Dose” value (D2 receptor)?
A: Its value is 86.87%.

Q: What about the “arrestin bias: potency in arrestin assay compared to Ca^2+ signaling assay” value (5-HT2A receptor [3]) of the same compound?
A: The value was over 50 fold.

Q: And the “5-HT2A Arrestin % Act @ Max Dose” value (5-HT2A receptor [3])?
A: Its value is 47.06%.

Q: What about the “agonist type” value (5-HT2A receptor [3]) of the same compound?
A: The value was “partial agonists”.

Q: For CCCN1C[C@H](C(=O)N[C@H](C)CC)C=C2c3cccc4[nH]cc(c34)C[C@H]21 [Compound 3, (6aR,9R)-N-((R)-sec-butyl)-7-propyl-4,6,6a,7,8,9-hexahydroindolo[4,3-fg]quinoline-9-carboxamide], which “Time Immobile” value (Sprague Dawley rats; 0.032 mg/kg SC) is on record?
A: The value was 137.5 s.

Q: And the “Time Immobile” value (Sprague Dawley rats; 0.32 mg/kg SC)?
A: Its value is 50.4 s.

Q: And the half-life at 1 μM [1]?
A: Its half-life at 1 μM is 4.4 min.

Q: And the “5-HT2A % Act @ Max Dose” value (5-HT2A receptor [2])?
A: Its value is 102.64%.

Q: What about the “selectivity for the 5-HT2A receptor over the tested adrenergic and dopamine receptors, in words” value (5-HT2A receptor [2]; vs Alpha1A, Alpha2A, D1, D2) of the same compound?
A: The value was “exceptional selectivity”.

Q: What about the “D2 % Act @ Max Dose” value (D2 receptor) of the same compound?
A: Its value is 116.9%.

Q: And the “5-HT2A Arrestin % Act @ Max Dose” value (5-HT2A receptor [3])?
A: The value was 109.57%.

Q: And the “agonist type” value (5-HT2A receptor [3])?
A: The value was “full agonists”.

Q: Which “Time Immobile” value (Sprague Dawley rats; 0.032 mg/kg SC) does the source give for CCN(CC)C(=O)[C@@H]1C=C2c3cccc4[nH]cc(c34)C[C@H]2N(CCCF)C1 [Compound 2, (6aR,9R)-N,N-diethyl-7-(3-fluoropropyl)-4,6,6a,7,8,9-hexahydroindolo[4,3-fg]quinoline-9-carboxamide] here?
A: The value was 76.44 s.

Q: What about the “efficacy in FST relative to positive control desipramine, in words” value (Sprague Dawley rats; SC) of the same compound?
A: Its value is “as efficacious as the positive control desipramine”.

Q: And the “Time Immobile” value (Sprague Dawley rats; 0.32 mg/kg SC)?
A: The value was 41.33 s.

Q: And the half-life at 1 μM [1]?
A: Its half-life at 1 μM is 12 min.

Q: And the “5-HT2A % Act @ Max Dose” value (5-HT2A receptor [2])?
A: The value was 97.75%.

Q: And the “D2 % Act @ Max Dose” value (D2 receptor)?
A: Its value is 91.2%.

Q: What about the “5-HT2A Arrestin % Act @ Max Dose” value (5-HT2A receptor [3]) of the same compound?
A: Its value is 114.55%.

Q: And the “agonist type” value (5-HT2A receptor [3])?
A: The value was “full agonists”.
